Three compounds from patent US20110105420A1, “AMINOSUGAR COMPOUND AND PROCESS FOR PRODUCTION THEREOF” (Astellas Pharma Inc., priority 2008, published 2011) can be followed below.

The term IC50 denotes the concentration needed to halve the response being measured.

In data set [1] the target is monkey pancreatic α-amylase. As to the kind of experiment: α-amylase inhibitory activity (starch-iodine absorbance). Format: biochemical. The note with it: cynomolgus monkey pancreas enzyme, starch substrate, 37° C., pH=7.0; read-out: inhibitory activity (IC50 value) against the monkey pancreatic α-amylase. The protocol: (§1) The solutions of pancreatic α-amylases of mouse, rat, dog and monkey were prepared from the pancreases of an ICR mouse (male, 8 weeks old, purchased from SLC Japan, Inc.), an SD rat (male, 8 weeks old, purchased from Charles River Laboratories Japan, Inc.), a beagle dog (male, 35 months old, purchased from Narc Corp.), and a cynomolgus monkey (male, 10 years old, purchased from CLEA Japan, Inc.). The solutions of α-amylases from human saliva and pancreas were prepared from the enzymes purchased from Sigma-Aldrich Co. These α-amylase solutions were all diluted to 800 U/mL using an assay buffer (48 mM NaCl, 5.4 mM KCl, 28 mM Na2HPO4, 43 mM NaH2PO4, 35 mM mannitol, pH=7.0). The various α-amylase solutions (20 U, 25 μL) and the compounds dissolved in the assay buffer (25 μL) were added to a 96-well microplate, and the microplate was incubated at 37° C. for 10 minutes. Subsequently, a starch solution (5 mg/mL, 50 μL) was added thereto, and the microplate was incubated at 37° C. for 10 minutes. A 0.33 M perchloric acid solution (50 μL) was added to the microplate to terminate the enzymatic reaction, and then a 0.01 M iodine solution (50 μL) was added thereto to color the solutions. The absorbance (660 nm) of each of the solutions was measured. The concentration of the compound inhibiting 50% of the α-amylase activity was calculated as the IC50 value.

Data set [2] concerns the target dog pancreatic α-amylase. The data set is described as above. The class given is biochemical. The note with it: beagle dog pancreas enzyme, starch substrate, 37° C., pH=7.0; read-out: inhibitory activity (IC50 value) against the dog pancreatic α-amylase. The protocol:
as §1

In data set [3] the target is T1, rat pancreatic α-amylase (Rattus norvegicus, UniProt P00689).
T1 construct: The solutions of pancreatic α-amylases of mouse, rat, dog and monkey were prepared from the pancreases; from tissue; host or cells: pancreas of SD rat (male, 8 weeks old, Charles River Laboratories Japan)
T1 sequence (P00689 16-508): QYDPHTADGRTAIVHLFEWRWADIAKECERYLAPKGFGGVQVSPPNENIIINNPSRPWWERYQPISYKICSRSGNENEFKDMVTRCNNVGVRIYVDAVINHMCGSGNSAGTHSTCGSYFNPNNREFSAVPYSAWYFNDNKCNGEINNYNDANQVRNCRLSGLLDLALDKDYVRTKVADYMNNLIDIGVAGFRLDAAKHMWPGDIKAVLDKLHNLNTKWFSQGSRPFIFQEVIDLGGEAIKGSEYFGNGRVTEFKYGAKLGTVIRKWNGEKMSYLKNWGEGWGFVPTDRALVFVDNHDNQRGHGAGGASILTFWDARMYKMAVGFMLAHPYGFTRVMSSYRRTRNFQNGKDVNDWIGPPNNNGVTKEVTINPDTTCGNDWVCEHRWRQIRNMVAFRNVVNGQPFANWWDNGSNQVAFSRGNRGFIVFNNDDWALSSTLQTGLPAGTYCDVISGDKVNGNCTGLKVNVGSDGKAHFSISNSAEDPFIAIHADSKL
Described as above. The note with it: read-out: inhibitory activity (IC50 value) against the rat pancreatic α-amylase; SD rat pancreas enzyme, starch substrate, 37° C., pH=7.0. Format: biochemical. The protocol: as §1

Data set [4] addresses T2, mouse pancreatic α-amylase (Mus musculus, UniProt P00688).
T2 construct: prepared from the pancreases of an ICR mouse; from tissue; host or cells: pancreas of ICR mouse (male, 8 weeks old, SLC Japan)
T2 sequence (P00688 16-508): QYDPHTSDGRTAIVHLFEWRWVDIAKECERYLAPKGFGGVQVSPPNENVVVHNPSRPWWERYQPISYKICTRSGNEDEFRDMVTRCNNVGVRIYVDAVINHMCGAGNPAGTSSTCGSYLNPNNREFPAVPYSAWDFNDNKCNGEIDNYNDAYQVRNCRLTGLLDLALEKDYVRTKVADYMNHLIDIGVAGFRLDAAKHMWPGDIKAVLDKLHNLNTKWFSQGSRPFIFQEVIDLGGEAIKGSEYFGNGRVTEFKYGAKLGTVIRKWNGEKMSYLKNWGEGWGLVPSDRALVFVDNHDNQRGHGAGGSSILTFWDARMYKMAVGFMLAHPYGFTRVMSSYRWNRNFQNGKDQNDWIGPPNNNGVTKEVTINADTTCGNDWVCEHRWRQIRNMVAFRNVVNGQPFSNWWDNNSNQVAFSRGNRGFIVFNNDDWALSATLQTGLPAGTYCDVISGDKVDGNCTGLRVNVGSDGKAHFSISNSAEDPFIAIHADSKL
Described as above. The class given is biochemical. Particulars: read-out: inhibitory activity (IC50 value) against the mouse pancreatic α-amylase; ICR mouse pancreas enzyme, starch substrate, 37° C., pH=7.0. The protocol: as §1

Data set [5] deals with T3, human saliva α-amylase (Homo sapiens, UniProt P0DUB6).
T3 construct: The solutions of α-amylases from human saliva and pancreas were prepared from the enzymes purchased from Sigma-Aldrich Co; purchased Sigma-Aldrich Co; host or cells: human saliva
T3 sequence (P0DUB6 16-511): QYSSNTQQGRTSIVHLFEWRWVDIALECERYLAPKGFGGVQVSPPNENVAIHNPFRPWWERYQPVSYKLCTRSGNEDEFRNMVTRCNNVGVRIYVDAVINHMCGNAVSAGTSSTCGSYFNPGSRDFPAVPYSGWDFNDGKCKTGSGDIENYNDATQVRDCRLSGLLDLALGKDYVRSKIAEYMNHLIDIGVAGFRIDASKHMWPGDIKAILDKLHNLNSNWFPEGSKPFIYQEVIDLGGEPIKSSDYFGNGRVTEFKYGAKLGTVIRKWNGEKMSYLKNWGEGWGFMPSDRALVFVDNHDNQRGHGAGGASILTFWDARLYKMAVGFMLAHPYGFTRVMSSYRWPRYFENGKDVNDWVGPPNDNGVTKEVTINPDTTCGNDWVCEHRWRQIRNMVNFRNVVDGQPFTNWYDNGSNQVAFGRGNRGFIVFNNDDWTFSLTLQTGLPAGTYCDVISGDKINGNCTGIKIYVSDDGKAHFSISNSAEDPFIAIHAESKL
The data set is described as above. Format: biochemical. The note with it: enzyme from Sigma-Aldrich, starch substrate, 37° C., pH=7.0; read-out: inhibitory activity (IC50 value) against the human saliva α-amylase. The protocol: as §1

Data set [6] concerns the target T4, human pancreatic α-amylase (Homo sapiens, UniProt P04746).
T4 construct: The solutions of α-amylases from human saliva and pancreas were prepared from the enzymes purchased from Sigma-Aldrich Co; purchased Sigma-Aldrich Co; host or cells: human pancreas
T4 sequence (P04746 16-511): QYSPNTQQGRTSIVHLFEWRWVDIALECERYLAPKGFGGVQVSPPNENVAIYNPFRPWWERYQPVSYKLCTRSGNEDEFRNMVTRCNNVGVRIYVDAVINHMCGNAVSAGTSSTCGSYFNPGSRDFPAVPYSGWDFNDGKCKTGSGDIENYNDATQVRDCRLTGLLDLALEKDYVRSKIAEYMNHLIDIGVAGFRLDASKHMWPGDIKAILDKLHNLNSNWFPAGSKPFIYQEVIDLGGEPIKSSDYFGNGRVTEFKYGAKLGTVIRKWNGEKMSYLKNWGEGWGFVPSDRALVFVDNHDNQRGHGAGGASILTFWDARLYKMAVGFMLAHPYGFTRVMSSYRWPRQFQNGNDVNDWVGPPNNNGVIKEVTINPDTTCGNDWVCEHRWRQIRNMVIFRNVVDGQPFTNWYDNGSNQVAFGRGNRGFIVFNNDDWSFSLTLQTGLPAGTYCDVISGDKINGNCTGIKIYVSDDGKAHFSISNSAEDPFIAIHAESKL
The data set is described as above. Format: biochemical. The note with it: enzyme from Sigma-Aldrich, starch substrate, 37° C., pH=7.0; read-out: inhibitory activity (IC50 value) against the human pancreatic α-amylase. The protocol: as §1

The nature of data set [7]: Solubility (physicochemical properties).
Data set [8] relates to Male ICR (normal) mice. As to the kind of experiment: oral activity under a load of carbohydrates (blood glucose and plasma insulin). Format: in vivo, mouse. The protocol:
Male ICR (normal) mice (6 weeks old, purchased from SLC Japan, Inc.) were used for the animal. The compound was prepared into a solution using a 0.5% methylcellulose solution. Blood was collected from a mouse which had been fasted overnight, for the measurement of the blood glucose level and the blood plasma insulin level, and the mouse was orally administered with a solvent or the compound A (0.3, 1, 3, 10 mg/kg), immediately followed by oral administration of a carbohydrate solution (75 mg/mL starch, 25 mg/mL sucrose, 20 mL/kg). Subsequently, blood was collected 0.25, 0.5 and 1 hour after the oral administration, for the measurement of the blood plasma insulin level, and blood was collected 0.5, 1 and 2 hours after the oral administration, for the measurement of the blood glucose level.
The blood glucose level was measured by using Glucose CH-test Wako reagent (Wako Pure Chemical Industry, Ltd.), and the blood plasma insulin concentration was measured by using a Mouse Insulin ELISA Kit (Shibayagi Co., Ltd.). The test results are indicated in the average ±standard error.
The area-under-curve (AUC) of the blood glucose level-time curve was calculated from the blood glucose level for the time period up to 2 hours from the administration of the compound, and the AUC of the plasma insulin level-time curve was calculated from the blood plasma insulin level for the time period up to 1 hour from the administration of the compound. A statistical analysis was performed between the solvent-administered group and the compound A-administered group by using Dunnett's multiple range test, and a critical rate of less than 5% was defined as significant.

Consider `CC1OC(OC2C(CO)OC(OC3C(CO)=CC(NC4C(C)OC(OC5C(CO)OC(OC6C(CO)=CC(NC7C(C)OC(OC8C(CO)OC(OC9C(CO)=CC(NC%10C(C)OC(OC%11C(CO)OC(OC%12C(CO)=CC(NC%13C(C)OC(OC%14C(CO)OC(OC%15C(CO)=CC(NC%16C(C)OC(OC%17C(CO)OC(OC%18C(CO)OC(OC%19C(CO)OC(OC%20OC(CO)C(O)C(O)C%20O)C(O)C%19O)C(O)C%18O)C(O)C%17O)C(O)C%16O)C(O)C%15O)C(O)C%14O)C(O)C%13O)C(O)C%12O)C(O)C%11O)C(O)C%10O)C(O)C9O)C(O)C8O)C(O)C7O)C(O)C6O)C(O)C5O)C(O)C4O)C(O)C3O)C(O)C2O)C(O)C(O)C1NC1C=C(CO)C(O)C(O)C1O` (stereo not drawn) [compound C], for which the IC50 turned out to be 2.02 nM in data set [1]; 2.07 nM in data set [2]; 1.95 nM in data set [3]; 1.73 nM in data set [4]; 1.99 nM in data set [5]; 2.21 nM in data set [6]. The “Solubility in acetone, MeOH, EtOH and MeCN” value (“Solubility in acetone, MeOH” for short) in data set [7] is “slightly soluble”. Besides, the “Solubility in water, DMF and DMSO” value in data set [7] is given as “highly soluble”.
Turning to `CC1OC(OC2C(CO)OC(OC3C(CO)=CC(NC4C(C)OC(OC5C(CO)OC(OC6C(CO)=CC(NC7C(C)OC(OC8C(CO)OC(OC9C(CO)=CC(NC%10C(C)OC(OC%11C(CO)OC(OC%12C(CO)OC(OC%13C(CO)OC(OC%14OC(CO)C(O)C(O)C%14O)C(O)C%13O)C(O)C%12O)C(O)C%11O)C(O)C%10O)C(O)C9O)C(O)C8O)C(O)C7O)C(O)C6O)C(O)C5O)C(O)C4O)C(O)C3O)C(O)C2O)C(O)C(O)C1NC1C=C(CO)C(O)C(O)C1O` (stereo not drawn) [compound A], the IC50 in data set [1] was 2.14 nM; in data set [2], 2.06 nM; in data set [3], 2.01 nM; in data set [4], 1.9 nM; in data set [5], 2.2 nM; in data set [6], 2.02 nM. The “Solubility in acetone, MeOH” value in data set [7] is recorded as “slightly soluble”. The “Solubility in water, DMF and DMSO” value in data set [7] was “highly soluble”. In data set [8] (oral administration 0.3 to 10 mg/kg, fasted ICR mice, carbohydrate load (starch + sucrose), glucose up to 2 hours, FIG. 7), the “blood glucose elevation suppressive action” value is on record as “dose-dependent blood glucose elevation suppressive action was recognized”. In addition, the “plasma insulin level lowering action” value in data set [8] (oral administration 0.3 to 10 mg/kg, fasted ICR mice, carbohydrate load, insulin up to 1 hour, FIG. 8) was “dose-dependent, significant plasma insulin level lowering action was also recognized”. Further, in data set [8] (oral, ICR mice, carbohydrate load, Dunnett's test vs solvent group), the “dose at which the blood glucose elevation suppressive action was significant” value is at least 1 mg/kg.
Take `CC1OC(OC2C(CO)OC(OC3C(CO)=CC(NC4C(C)OC(OC5C(CO)OC(OC6C(CO)=CC(NC7C(C)OC(OC8C(CO)OC(OC9C(CO)=CC(NC%10C(C)OC(OC%11C(CO)OC(OC%12C(CO)=CC(NC%13C(C)OC(OC%14C(CO)OC(OC%15C(CO)OC(OC%16C(CO)OC(OC%17OC(CO)C(O)C(O)C%17O)C(O)C%16O)C(O)C%15O)C(O)C%14O)C(O)C%13O)C(O)C%12O)C(O)C%11O)C(O)C%10O)C(O)C9O)C(O)C8O)C(O)C7O)C(O)C6O)C(O)C5O)C(O)C4O)C(O)C3O)C(O)C2O)C(O)C(O)C1NC1C=C(CO)C(O)C(O)C1O` (stereo not drawn) [compound B]: the IC50 in data set [1] worked out at 1.9 nM; in data set [2] it was 2.38 nM; in data set [3], 2.12 nM; in data set [4] it was 2.06 nM; in data set [5], 1.87 nM; in data set [6] it was 2.11 nM. The “Solubility in acetone, MeOH” value in data set [7] is reported as “slightly soluble”. Further, the “Solubility in water, DMF and DMSO” value in data set [7] was “highly soluble”.
